Test results from patent US7511013B2, “Cyclosporin analogues and their pharmaceutical uses” (AMR Technology, Inc., priority 2004, dated 2009).
*1 amine or outer side, *2 acyl side, *3 side chain or, on linkers, in order; H or OH if unused. Where a SMILES comes first, the peptide text is derived from it. [ ]: non-standard residue; d: D form. X1 = C=C/C=C/C[C@@H](C)[C@@H](O)[C@@H](C(=O)[*:2])N(C)[*:1]; X3 = C[C@H](C/C=C/Cl)[C@@H](O)[C@@H](C(=O)[*:2])N(C)[*:1]; X2 = C[C@H](C/C=C/I)[C@@H](O)[C@@H](C(=O)[*:2])N(C)[*:1]; NMeL = CN[C@@H](CC(C)C)C(=O)O; NMeV = CN[C@H](C(=O)O)C(C)C; dNMeS = CN[C@H](CO)C(=O)O; Abu = CC[C@H](N)C(=O)O

What follows are molecules tested on concanavalin A-stimulated splenocytes (assay: Concanavalin A-stimulated splenocyte assay ([3H]thymidine incorporation)). Conditions: not given.
Format: cell-based, BALB/c mice
Protocol: Male BALB/c mice, at 5 to 7 weeks of age, were sacrificed by CO2 inhalation. Spleens were removed and dissociated by pushing through a nylon cell strainer. The splenocytes were washed in RPMI 1640/5% fetal calf serum (FCS) and pelleted at 400×g. Red blood cells were then lysed by resuspending the cell pellet in ACK lysis buffer (150 mM NH4Cl, 1 mM KHCO3, 0.1 mM EDTA, 3 mL per spleen) for 10 min at room temperature. After pelleting at 400×g, the cells were washed by resuspending in RPMI 1640/5% FCS and repelleting. The cell pellet was resuspended in RPMI 1640/5% FCS and again passed through a cell strainer to remove cell aggregates. The cells were then counted and adjusted to 2×10^6 cells/ml in RPMI 1640/10% FCS/50 μM 2-mercaptoethanol. Cell viability was assessed by Trypan blue staining. […] The cells were cultured in a 37° C. CO2 incubator for 2 days and then pulsed with 1 μCi of [^3H]thymidine for 6 hours. Cells were harvested onto filtermats with a TomTec 96 well plate harvester and lysed with H2O. The filtermat and scintillation fluid were sealed in a plastic sleeve. [^3H]thymidine incorporation was measured with a Wallac Trilux plate counter. Initial screens were done at a fixed value of 100 ng/ml test compound. IC50s were calculated from 7 point concentration-response curves using GraphPad software.

Row | IC50 (ng/mL), immunosuppressive activity of novel cyclosporin analogue compound | SMILES
1 | 7 ng/mL | C=C/C=C/C[C@@H](C)[C@@H](O)[C@H]1C(=O)N[C@@H](CC)C(=O)N(C)[C@H](CO)C(=O)N(C)[C@@H](CC(C)C)C(=O)N[C@@H](C(C)C)C(=O)N(C)[C@@H](CC(C)C)C(=O)N[C@@H](C)C(=O)N[C@H](C)C(=O)N(C)[C@@H](CC(C)C)C(=O)N(C)[C@@H](CC(C)C)C(=O)N(C)[C@@H](C(C)C)C(=O)N1C [Example 67, trans-cyclosporin diene] (cyclo([X1][Abu][dNMeS][NMeL]V[NMeL]A[dA][NMeL][NMeL][NMeV]))
2 | 9 ng/mL | CC[C@@H]1NC(=O)[C@H]([C@H](O)[C@H](C)C/C=C/Br)N(C)C(=O)[C@H](C(C)C)N(C)C(=O)[C@H](CC(C)C)N(C)C(=O)[C@H](CC(C)C)N(C)C(=O)[C@@H](C)NC(=O)[C@H](C)NC(=O)[C@H](CC(C)C)N(C)C(=O)[C@H](C(C)C)NC(=O)[C@H](CC(C)C)N(C)C(=O)CN(C)C1=O [Example 19, trans-cyclosporin vinyl bromide]
3 | 5 ng/mL | CC[C@@H]1NC(=O)[C@H]([C@H](O)[C@H](C)C/C=C/I)N(C)C(=O)[C@H](C(C)C)N(C)C(=O)[C@H](CC(C)C)N(C)C(=O)[C@H](CC(C)C)N(C)C(=O)[C@@H](C)NC(=O)[C@H](C)NC(=O)[C@H](CC(C)C)N(C)C(=O)[C@H](C(C)C)NC(=O)[C@H](CC(C)C)N(C)C(=O)[C@@H](CO)N(C)C1=O [Example 72, cyclosporin vinyl iodide] (cyclo([X2][Abu][dNMeS][NMeL]V[NMeL]A[dA][NMeL][NMeL][NMeV]))
4 | 38 ng/mL | CC[C@@H]1NC(=O)[C@H]([C@H](O)[C@H](C)CC=CC(F)(F)F)N(C)C(=O)[C@H](C(C)C)N(C)C(=O)[C@H](CC(C)C)N(C)C(=O)[C@H](CC(C)C)N(C)C(=O)[C@@H](C)NC(=O)[C@H](C)NC(=O)[C@H](CC(C)C)N(C)C(=O)[C@H](C(C)C)NC(=O)[C@H](CC(C)C)N(C)C(=O)CN(C)C1=O [Example 31, cyclosporin fluoride]
5 | 12 ng/mL | CC[C@@H]1NC(=O)[C@H]([C@H](O)[C@H](C)CC=CCF)N(C)C(=O)[C@H](C(C)C)N(C)C(=O)[C@H](CC(C)C)N(C)C(=O)[C@H](CC(C)C)N(C)C(=O)[C@@H](C)NC(=O)[C@H](C)NC(=O)[C@H](CC(C)C)N(C)C(=O)[C@H](C(C)C)NC(=O)[C@H](CC(C)C)N(C)C(=O)CN(C)C1=O [Example 34, cyclosporin allylic fluoride]
6 | 4 ng/mL | C=C/C=C/C[C@@H](C)[C@@H](O)[C@H]1C(=O)N[C@@H](CC)C(=O)N(C)[C@H](CO)C(=O)N(C)[C@@H](CC(C)C)C(=O)N[C@@H](C(C)C)C(=O)N(C)[C@@H](CC(C)C)C(=O)N[C@@H](C)C(=O)N[C@H](C)C(=O)N(C)[C@@H](CC(C)C)C(=O)N(C)[C@@H](CC(C)C)C(=O)N(C)[C@@H](C(C)C)C(=O)N1C [Example 69, trans-cyclosporin diene-d2] (cyclo([X1][Abu][dNMeS][NMeL]V[NMeL]A[dA][NMeL][NMeL][NMeV]))
7 | 42 ng/mL | CCON=C/C=C/C[C@@H](C)[C@@H](O)[C@H]1C(=O)N[C@@H](CC)C(=O)N(C)CC(=O)N(C)[C@@H](CC(C)C)C(=O)N[C@@H](C(C)C)C(=O)N(C)[C@@H](CC(C)C)C(=O)N[C@@H](C)C(=O)N[C@H](C)C(=O)N(C)[C@@H](CC(C)C)C(=O)N(C)[C@@H](CC(C)C)C(=O)N(C)[C@@H](C(C)C)C(=O)N1C [Example 58, cyclosporin oxime]
8 | 11 ng/mL | CC[C@@H]1NC(=O)[C@H]([C@H](O)[C@H](C)C/C=C/I)N(C)C(=O)[C@H](C(C)C)N(C)C(=O)[C@H](CC(C)C)N(C)C(=O)[C@H](CC(C)C)N(C)C(=O)[C@@H](C)NC(=O)[C@H](C)NC(=O)[C@H](CC(C)C)N(C)C(=O)[C@H](C(C)C)NC(=O)[C@H](CC(C)C)N(C)C(=O)CN(C)C1=O [Example 6, cyclosporin vinyl iodide]
9 | 7 ng/mL | CC[C@@H]1NC(=O)[C@H]([C@H](O)[C@H](C)C/C=C/I)N(C)C(=O)[C@H](C(C)C)N(C)C(=O)[C@H](CC(C)C)N(C)C(=O)[C@H](CC(C)C)N(C)C(=O)[C@@H](C)NC(=O)[C@H](C)NC(=O)[C@H](CC(C)C)N(C)C(=O)[C@H](C(C)C)NC(=O)[C@H](CC(C)C)N(C)C(=O)CN(C)C1=O [Example 9, trans-deuterated cyclosporin vinyl iodide]
10 | 8 ng/mL | CC[C@@H]1NC(=O)[C@H]([C@H](O)[C@H](C)C/C=C/Cl)N(C)C(=O)[C@H](C(C)C)N(C)C(=O)[C@H](CC(C)C)N(C)C(=O)[C@H](CC(C)C)N(C)C(=O)[C@@H](C)NC(=O)[C@H](C)NC(=O)[C@H](CC(C)C)N(C)C(=O)[C@H](C(C)C)NC(=O)[C@H](CC(C)C)N(C)C(=O)[C@@H](CO)N(C)C1=O [Example 71, cyclosporin vinyl chloride] (cyclo([X3][Abu][dNMeS][NMeL]V[NMeL]A[dA][NMeL][NMeL][NMeV]))

Same assay, conditions: FIG. 1, concanavalin A stimulated splenocyte assay

Row | SMILES | potency in immunosuppression compared to cyclosporin A
11 | CC[C@@H]1NC(=O)[C@H]([C@H](O)[C@H](C)C/C=C/Cl)N(C)C(=O)[C@H](C(C)C)N(C)C(=O)[C@H](CC(C)C)N(C)C(=O)[C@H](CC(C)C)N(C)C(=O)[C@@H](C)NC(=O)[C@H](C)NC(=O)[C@H](CC(C)C)N(C)C(=O)[C@H](C(C)C)NC(=O)[C@H](CC(C)C)N(C)C(=O)CN(C)C1=O [Example 11, trans-deuterated cyclosporin vinyl chloride] | enhanced potency
12 | CC[C@@H]1NC(=O)[C@H]([C@H](O)[C@H](C)C/C=C/I)N(C)C(=O)[C@H](C(C)C)N(C)C(=O)[C@H](CC(C)C)N(C)C(=O)[C@H](CC(C)C)N(C)C(=O)[C@@H](C)NC(=O)[C@H](C)NC(=O)[C@H](CC(C)C)N(C)C(=O)[C@H](C(C)C)NC(=O)[C@H](CC(C)C)N(C)C(=O)CN(C)C1=O [Example 9, trans-deuterated cyclosporin vinyl iodide] | enhanced potency
